Source: ChEMBL document CHEMBL4033755, “19F-NMR-Based Dual-Site Reporter Assay for the Discovery and Distinction of Catalytic and Allosteric Kinase Inhibitors” (ACS Med Chem Lett, 2017)
Calls of active or inactive are those of the source. The rule behind the calls is not given here.

Experiments:
[1] = target: T1, Tyrosine-protein kinase ABL1 (Homo sapiens, UniProt P00519); assay: Binding affinity to catalytic site of N-terminal His6-tagged ABL (83 to 534 residues) (unknown origin) expressed in Escherichia coli co-expressing Protein Tyrosine Phosphatase 1b by NMR spectroscopy based dual-site competition assay
T1 sequence (P00519 whole entry, the tested form may be a part): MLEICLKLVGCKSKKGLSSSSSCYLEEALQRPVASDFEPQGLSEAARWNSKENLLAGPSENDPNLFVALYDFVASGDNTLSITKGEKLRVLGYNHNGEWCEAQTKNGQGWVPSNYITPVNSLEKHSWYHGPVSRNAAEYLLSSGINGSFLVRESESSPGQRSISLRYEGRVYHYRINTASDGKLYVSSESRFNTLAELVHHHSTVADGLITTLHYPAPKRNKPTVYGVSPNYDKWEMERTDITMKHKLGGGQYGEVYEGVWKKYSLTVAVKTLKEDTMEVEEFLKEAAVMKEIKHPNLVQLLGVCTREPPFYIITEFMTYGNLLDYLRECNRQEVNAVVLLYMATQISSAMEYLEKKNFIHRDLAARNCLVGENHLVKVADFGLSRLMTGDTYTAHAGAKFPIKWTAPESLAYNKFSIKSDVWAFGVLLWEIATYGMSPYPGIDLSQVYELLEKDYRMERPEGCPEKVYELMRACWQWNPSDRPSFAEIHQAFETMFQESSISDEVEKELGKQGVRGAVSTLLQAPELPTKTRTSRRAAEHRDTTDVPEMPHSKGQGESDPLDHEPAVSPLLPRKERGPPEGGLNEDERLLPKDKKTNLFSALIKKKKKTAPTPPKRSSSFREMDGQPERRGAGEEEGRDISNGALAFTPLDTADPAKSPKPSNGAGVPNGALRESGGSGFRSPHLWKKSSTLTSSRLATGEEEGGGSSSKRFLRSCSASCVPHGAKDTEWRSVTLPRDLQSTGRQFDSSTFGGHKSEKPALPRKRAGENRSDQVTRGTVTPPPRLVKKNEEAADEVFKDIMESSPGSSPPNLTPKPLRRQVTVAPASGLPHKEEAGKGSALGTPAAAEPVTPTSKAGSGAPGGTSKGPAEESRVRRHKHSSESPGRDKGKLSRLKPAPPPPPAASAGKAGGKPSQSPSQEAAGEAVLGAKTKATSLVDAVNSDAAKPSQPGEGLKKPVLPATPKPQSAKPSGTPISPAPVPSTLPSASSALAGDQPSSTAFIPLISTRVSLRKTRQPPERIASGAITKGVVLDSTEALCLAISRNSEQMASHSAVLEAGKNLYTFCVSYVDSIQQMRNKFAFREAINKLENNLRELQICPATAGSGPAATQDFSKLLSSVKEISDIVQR

[2] = target: T1, Tyrosine-protein kinase ABL1; assay: Binding affinity to allosteric site of N-terminal His6-tagged ABL (83 to 534 residues) (unknown origin) expressed in Escherichia coli co-expressing Protein Tyrosine Phosphatase 1b at 25 uM in presence of ABL001
[3] = target: T1, Tyrosine-protein kinase ABL1; assay: Displacement of CAT-1 from catalytic site of N-terminal His6-tagged ABL (83 to 534 residues) (unknown origin) expressed in Escherichia coli co-expressing Protein Tyrosine Phosphatase 1b at 25 and 50 uM by 19F NMR spectroscopy based dual-site competition assay
[4] = target: T1, Tyrosine-protein kinase ABL1; assay: Displacement of ALLO-1 from allosteric site of N-terminal His6-tagged ABL (83 to 534 residues) (unknown origin) expressed in Escherichia coli co-expressing Protein Tyrosine Phosphatase 1b at 25 to 250 uM by 19F NMR spectroscopy based dual-site competition assay
[5] = target: T1, Tyrosine-protein kinase ABL1; assay: Displacement of CAT-1 from catalytic site of N-terminal His6-tagged ABL (83 to 534 residues) (unknown origin) expressed in Escherichia coli co-expressing Protein Tyrosine Phosphatase 1b at 25 to 250 uM by 19F NMR spectroscopy based dual-site competition assay

Kd [1]	Activity [2]	inhibition [3]	inhibition [4]	inhibition [5]	Structure (SMILES)
43 µM	Active				NC(=O)C1CCN(c2ccc(C(F)(F)F)cn2)CC1
		inactive	Active	Active	FC(F)(F)Oc1ccc(Nc2ccncn2)cc1
